# Biological target: aryl hydrocarbon receptor (AhR) (Mus musculus (Mouse), UniProt P30561)
# Experiment: AhR ligand screening: AhRE-luciferase reporter in transfected Hepa1 cells
# Format: cell-based
# Details: for Fold @ 1 nM: fold change of luciferase expression at 1 nM test compound relative to vehicle (0.1% DMSO); for Fold @ 100 nM: fold change of luciferase expression at 100 nM test compound relative to vehicle (0.1% DMSO); for Fold @ 10 uM: fold change of luciferase expression at 10 uM test compound relative to vehicle (0.1% DMSO); for Fold relative to benchmark @ 100 nM: luciferase expression at 100 nM test compound relative to 100 nM benchmark compound 11-cl-BBQ
# Source text: The AhR is a ligand-activated transcription factor that dimerizes with ARNT to regulate gene expression, and genes that are regulated by AhR ligands have AhR response elements (AhRE) in their promotor regions.
# Briefly, Hepa1 cells were transfected with a reporter construct consisting of AhRE linked to luciferase. The addition of AhR ligands to the transfected cells induces luciferase production that is directly proportional to the amount of AhR activation. We used this reporter system to identify novel compounds with AhR-activating properties. Transfected Hepa1 cells were plated at a density of 1×10^4 cells/well in 100 μL of cell culture media in 96 well plates and grown overnight. […] Following incubation with the compounds, the media was removed, and cells were harvested with lysis buffer. The lysates were transferred to opaque 96 well plates, where they were assayed well-by-well for luciferase activity by injection of luciferase assay substrate with a 2 sec mixing time and 15 sec integration period on a Tropix TR717 microplate luminometer. Data were expressed as fold induction of luciferase relative to vehicle (0.1% DMSO) treated cells.
# Chain of aryl hydrocarbon receptor (AhR) (P30561 10-805): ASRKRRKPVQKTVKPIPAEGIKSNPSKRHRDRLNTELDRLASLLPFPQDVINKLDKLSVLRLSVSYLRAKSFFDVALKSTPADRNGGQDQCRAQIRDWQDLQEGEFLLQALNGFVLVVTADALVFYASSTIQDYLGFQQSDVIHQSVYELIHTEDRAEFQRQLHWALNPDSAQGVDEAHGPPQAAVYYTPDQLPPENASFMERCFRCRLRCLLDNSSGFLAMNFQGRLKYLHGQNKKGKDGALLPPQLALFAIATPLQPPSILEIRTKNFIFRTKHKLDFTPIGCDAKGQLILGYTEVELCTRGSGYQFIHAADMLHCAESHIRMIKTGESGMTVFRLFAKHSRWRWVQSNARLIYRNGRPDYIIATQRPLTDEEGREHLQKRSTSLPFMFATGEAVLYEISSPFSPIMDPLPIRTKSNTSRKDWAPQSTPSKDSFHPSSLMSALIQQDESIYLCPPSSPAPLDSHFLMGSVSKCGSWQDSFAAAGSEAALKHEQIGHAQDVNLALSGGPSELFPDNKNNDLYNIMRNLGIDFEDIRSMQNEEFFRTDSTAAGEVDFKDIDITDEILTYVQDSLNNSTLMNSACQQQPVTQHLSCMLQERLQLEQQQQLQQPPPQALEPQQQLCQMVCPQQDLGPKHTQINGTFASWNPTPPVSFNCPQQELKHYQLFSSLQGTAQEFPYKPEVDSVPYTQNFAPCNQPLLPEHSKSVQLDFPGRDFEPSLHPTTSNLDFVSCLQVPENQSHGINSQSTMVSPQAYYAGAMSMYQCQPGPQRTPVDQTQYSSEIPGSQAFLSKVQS
# Chain of aryl hydrocarbon receptor (AhR) (P53762 whole entry partner): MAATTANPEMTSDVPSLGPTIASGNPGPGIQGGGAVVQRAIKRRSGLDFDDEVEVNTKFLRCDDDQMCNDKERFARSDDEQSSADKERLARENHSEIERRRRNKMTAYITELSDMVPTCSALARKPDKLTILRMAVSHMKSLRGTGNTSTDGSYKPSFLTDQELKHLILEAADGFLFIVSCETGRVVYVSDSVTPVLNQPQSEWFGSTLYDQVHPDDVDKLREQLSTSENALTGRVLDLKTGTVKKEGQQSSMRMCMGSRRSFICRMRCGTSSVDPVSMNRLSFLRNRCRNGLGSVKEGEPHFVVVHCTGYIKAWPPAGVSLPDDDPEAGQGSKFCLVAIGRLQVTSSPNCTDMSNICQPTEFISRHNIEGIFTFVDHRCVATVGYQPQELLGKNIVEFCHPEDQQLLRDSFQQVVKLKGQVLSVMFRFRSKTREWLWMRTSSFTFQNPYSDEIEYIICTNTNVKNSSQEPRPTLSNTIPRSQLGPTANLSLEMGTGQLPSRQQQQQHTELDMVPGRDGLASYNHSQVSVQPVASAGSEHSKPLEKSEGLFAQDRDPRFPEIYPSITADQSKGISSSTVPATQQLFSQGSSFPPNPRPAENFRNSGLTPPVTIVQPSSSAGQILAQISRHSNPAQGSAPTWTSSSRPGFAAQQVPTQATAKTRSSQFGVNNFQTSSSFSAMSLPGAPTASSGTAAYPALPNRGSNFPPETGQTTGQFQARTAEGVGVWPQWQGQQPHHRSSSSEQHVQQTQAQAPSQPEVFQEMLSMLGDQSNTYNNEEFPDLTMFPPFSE
Fold @ 1 nM,Fold @ 100 nM,Fold @ 10 uM,Fold relative to benchmark @ 100 nM,SMILES
1 fold,19 fold,25 fold,0.76 fold,CCc1ccc(S(=O)(=O)n2c(-c3cccc4ccccc34)nc3cc(Cl)ccc32)cc1 [Compound 775]
1 fold,2 fold,6 fold,0.08 fold,O=C(c1ccccc1)n1c(-c2cccc3c2CCCC3)nc2cc(Cl)ccc21 [Compound 777]
1 fold,1 fold,8 fold,0.04 fold,O=C(c1ccccc1)n1c(-c2cccc3c2CCCC3)nc2ccc(Cl)cc21 [Compound 778]
1 fold,1 fold,5 fold,0.04 fold,O=C(c1ccc(F)c(F)c1)n1c(-c2cccc3c2CCCC3)nc2cc(Cl)ccc21 [Compound 779]
1 fold,1 fold,7 fold,0.04 fold,O=C(c1ccc(F)c(F)c1)n1c(-c2cccc3c2CCCC3)nc2ccc(Cl)cc21 [Compound 780]
1 fold,1 fold,24 fold,0.03 fold,O=S(=O)(C1CC1)n1c(-c2cccc3ccccc23)nc2cc(Cl)ccc21 [Compound 783]
1 fold,2 fold,34 fold,0.07 fold,O=S(=O)(C1CC1)n1c(-c2cccc3ccccc23)nc2ccc(Cl)cc21 [Compound 784]
1 fold,1 fold,4 fold,0.04 fold,CC(C)(C)c1cccc(-c2nc3cc(Cl)ccc3n2C(=O)c2ccc(F)c(F)c2)c1 [Compound 787]
1 fold,2 fold,19 fold,0.08 fold,O=C(c1ccc(F)c(F)c1)n1c(-c2cccc(C(F)(F)F)c2)nc2cc(Cl)ccc21 [Compound 788]
1 fold,3 fold,8 fold,0.12 fold,O=C(c1ccccc1)n1c(-c2cccc(C(F)(F)F)c2)nc2ccc(Cl)cc21 [Compound 789]
1 fold,1 fold,2 fold,0.04 fold,CC(C)(C)c1cccc(-c2nc3cc(Cl)ccc3n2C(=O)c2ccccc2)c1 [Compound 790]
1 fold,1 fold,26 fold,0.04 fold,Cc1cccc(-c2nc3cc(Cl)ccc3n2C(=O)c2ccc(F)c(F)c2)c1Cl [Compound 791]
1 fold,2 fold,19 fold,0.08 fold,O=C(c1ccc(F)c(F)c1)n1c(-c2ccc(F)c3ccccc23)nc2cc(Cl)ccc21 [Compound 792]
1 fold,22 fold,33 fold,0.88 fold,O=C(c1ccc2c(c1)OCCO2)n1c(-c2cccc3ccccc23)nc2cc(Cl)ccc21 [Compound 850]
1 fold,21 fold,29 fold,0.84 fold,O=C(c1ccc2c(c1)OCCO2)n1c(-c2cccc3ccccc23)nc2cc(Cl)ccc21 [Compound 851]
1 fold,1 fold,29 fold,0.03 fold,COc1ccc(Cn2c(-c3cccc4ccccc34)nc3cc(Cl)ccc32)cc1 [Compound 852]
1 fold,1 fold,11 fold,0.03 fold,COc1ccc(Cn2c(-c3cccc4ccccc34)nc3ccc(Cl)cc32)cc1 [Compound 853]
1 fold,1 fold,4 fold,0.03 fold,"Fc1ccc(-n2c(-c3cccc4ccccc34)nc3cc(Cl)ccc32)nc1 [Compound 854, 5-chloro-1-(5-fluoropyridin-2-yl)-2-(naphthalen-1-yl)-1H-benzo[d]imidazole]"
1 fold,33 fold,44 fold,1.14 fold,O=C(c1cnc2ccccc2c1)n1c(-c2cccc3ccccc23)nc2cc(Cl)ccc21 [Compound 855]
1 fold,38 fold,46 fold,1.31 fold,O=C(c1cnc2ccccc2c1)n1c(-c2cccc3ccccc23)nc2ccc(Cl)cc21 [Compound 856]
1 fold,12 fold,75 fold,0.41 fold,O=C(c1ccc(F)c(F)c1)n1c(-c2cc3ccccc3o2)nc2cc(Cl)ccc21 [Compound 857]
1 fold,10 fold,73 fold,0.34 fold,O=C(c1ccc(F)c(F)c1)n1c(-c2cc3ccccc3o2)nc2ccc(Cl)cc21 [Compound 858]
1 fold,12 fold,80 fold,0.41 fold,O=C(C1CCCCC1)n1c(-c2cc3ccccc3o2)nc2cc(Cl)ccc21 [Compound 859]
1 fold,3 fold,88 fold,0.1 fold,Cn1ncc2c(-c3nc4cc(Cl)ccc4n3C(=O)c3ccc(F)c(F)c3)cccc21 [Compound 860]
1 fold,2 fold,90 fold,0.07 fold,O=C(c1ccc(F)c(F)c1)n1c(-c2csc3ccccc23)nc2cc(Cl)ccc21 [Compound 861]
1 fold,2 fold,82 fold,0.07 fold,O=C(c1ccc(F)c(F)c1)n1c(-c2csc3ccccc23)nc2ccc(Cl)cc21 [Compound 862]
1 fold,2 fold,34 fold,0.07 fold,O=C(c1ccccc1)n1c(-c2ccc(F)c3ccccc23)nc2cc(Cl)ccc21 [Compound 863]
1 fold,34 fold,50 fold,1.17 fold,O=C(C1CCCCC1)n1c(-c2cccc3ccccc23)nc2cc(Cl)ccc21 [Compound 866]
1 fold,2 fold,32 fold,0.07 fold,Clc1ccc2c(c1)nc(-c1cccc3ccccc13)n2Cc1ccnc2ccccc12 [Compound 867]
1 fold,2 fold,28 fold,0.07 fold,Clc1ccc2nc(-c3cccc4ccccc34)n(Cc3ccnc4ccccc34)c2c1 [Compound 868]
